Laboratory results: the supplement of paper PMC4862054

What was measured:
Settings in all cases: incubation time: 72 h
[1] = tested on: Hs578T; test: drug sensitivity score (DSS), CellTiter-Glo (DSS (AUC-based score)); higher = stronger drug effect (viability inhibition or cytotoxicity); extreme values may be limits of the assay
Outline: (§1)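 Breast cancer cell lines (20 µl suspension) were seeded into 384-well plates holding compound at 5 concentrations in 10-fold steps over a compound-specific 10,000-fold range, then incubated 72 h. CellTox Green fluorescence (485/520 nm) was read first, then CellTiter-Glo luminescence after 10 min at room temperature. Each plate was normalised to 0.1 % DMSO and a positive kill control. The drug sensitivity score was calculated from the area under the fitted dose-response curve.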

[2] = tested on: SK-BR-3; test: as above
Outline: as §1

[3] = tested on: CAL-148; test: as above
Outline: as §1

[4] = tested on: HCC1937; test: as above
Outline: as §1

[5] = tested on: BT-549; test: as above
Outline: as §1

[6] = tested on: MDA-MB-436; test: as above
Outline: as §1

[7] = tested on: MCF-10A; test: as above
Outline: as §1

[8] = tested on: CAL-51; test: as above
Outline: as §1

[9] = tested on: MFM-223; test: as above
Outline: as §1

[10] = tested on: MDA-MB-468; test: as above
Outline: as §1

[11] = tested on: CAL-85-1; test: as above
Outline: as §1

[12] = tested on: MDA-MB-453; test: as above
Outline: as §1

[13] = tested on: HCC1143; test: as above
Outline: as §1

[14] = tested on: BT-474; test: as above
Outline: as §1

[15] = tested on: HCC1599; test: as above
Outline: as §1

[16] = tested on: CAL-120; test: normalised viability (% of control), CellTiter-Blue; higher = more viable cells (about 100 = DMSO control)
Outline: (§2)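 Each entry is normalised viability at a single listed concentration within a series. It comes from breast cancer cell lines incubated 72 h with compound in 384-well plates, then measured with CellTiter-Blue fluorescence at 560/590 nm. Every plate was normalised between vehicle (100) and a positive kill control (0).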

[17] = tested on: SK-BR-3; test: as above
Outline: as §2

[18] = tested on: HCC1937; test: as above
Outline: as §2

[19] = tested on: CAL-51; test: as above
Outline: as §2

[20] = tested on: MFM-223; test: as above
Outline: as §2

[21] = tested on: MDA-MB-468; test: as above
Outline: as §2

[22] = tested on: HCC1143; test: as above
Outline: as §2

[23] = tested on: MDA-MB-231; test: as above
Outline: as §2

[24] = tested on: BT-474; test: as above
Outline: as §2

[25] = tested on: HDQ-P1; test: as above
Outline: as §2

CCC1(c2ccc(N)cc2)CCC(=O)NC1=O (stereo not given) [Aminoglutethimide]
Settings	drug sensitivity score
[1]	0
[2]	0
[3]	0
[4]	0
[5]	0
[6]	0
[7]	0
[8]	0
[9]	0
[10]	0
[11]	0
[12]	0
[13]	0
[14]	0
[15]	0

normalised viability [%]
Settings	[16]	[17]	[18]	[19]	[20]	[21]	[22]	[23]	[24]	[25]
3 nM	–	–	–	87.2	–	–	–	–	–	84.8
10 nM	111	99.1	93.3	–	97	97.3	124	86.9	107	–
30 nM	–	–	–	92.6	–	–	–	–	–	99.2
100 nM	–	–	–	92.8	–	–	–	–	–	103
1000 nM	116	100	92.9	–	102	103	115	90.2	104	–
10000 nM	108	109	83.4	–	97.5	110	122	106	105	–

Cn1c(CCCC(=O)O)nc2cc(N(CCCl)CCCl)ccc21 [Bendamustine]
Settings	drug sensitivity score
[1]	0
[2]	0
[3]	0
[4]	0
[5]	0
[6]	0
[7]	0
[8]	0
[9]	0
[10]	0
[11]	0
[12]	0
[13]	0
[14]	0
[15]	0

normalised viability [%]
Settings	[16]	[17]	[18]	[19]	[20]	[21]	[22]	[23]	[24]	[25]
3 nM	–	–	–	111	–	–	–	–	–	105
10 nM	89.5	108	55.3	–	96.2	107	107	102	127	–
30 nM	–	–	–	105	–	–	–	–	–	119
100 nM	–	–	–	111	–	–	–	–	–	109
1000 nM	86.7	109	85.7	–	87.4	95	104	96.1	120	–
10000 nM	93.4	85	93.7	–	93.5	82.3	97.8	91	105	–

C=C(c1ccc(C(=O)O)cc1)c1cc2c(cc1C)C(C)(C)CCC2(C)C [Bexarotene]
Settings	drug sensitivity score
[1]	0
[2]	2.44
[3]	0
[4]	0
[5]	0
[6]	0
[7]	0
[8]	0
[9]	0
[10]	0
[11]	0
[12]	0
[13]	0
[14]	1.51
[15]	9

normalised viability [%]
Settings	[16]	[17]	[18]	[19]	[20]	[21]	[22]	[23]	[24]	[25]
3 nM	–	–	–	82	–	–	–	–	–	89.3
10 nM	101	100	82.3	–	101	108	123	91.2	103	–
30 nM	–	–	–	88.7	–	–	–	–	–	84.9
100 nM	–	–	–	88.5	–	–	–	–	–	102
1000 nM	108	89.8	82.2	–	103	100	117	86.5	95.7	–
10000 nM	106	83.1	82.1	–	96.5	110	104	105	97.7	–

COc1cc2nccc(Oc3ccc(NC(=O)C4(C(=O)Nc5ccc(F)cc5)CC4)cc3)c2cc1OC [Cabozantinib]
Settings	drug sensitivity score
[1]	0
[2]	0
[3]	0
[4]	0
[5]	0
[6]	0
[7]	0
[8]	0
[9]	0
[10]	0
[11]	0
[12]	0
[13]	0
[14]	1.14
[15]	0

normalised viability [%]
Settings	[16]	[17]	[18]	[19]	[20]	[21]	[22]	[23]	[24]	[25]
0.3 nM	–	–	–	109	–	–	–	–	–	97.7
1 nM	85.5	115	98	–	88.5	110	78.9	86.4	125	–
3 nM	–	–	–	106	–	–	–	–	–	93.7
10 nM	–	–	–	97.8	–	–	–	–	–	112
100 nM	77.8	110	87.5	–	84	106	87.9	94.1	119	–
1000 nM	86.5	109	100	–	53.7	101	85.5	87.7	127	–
